Legend:
Aurora B = molecular target: T1, Aurora B (Homo sapiens, UniProt Q96GD4); assay: Aurora B cell mechanistic assay (HT-29), phospho-Histone H3 (Ser10) ELISA; assay type: cell-based; settings: HT-29 cell line; inhibition of phospho-Histone H3 (Ser10); at least duplicate experiments (italicized if single experiment); read-out: Aurora B mech IC50
T1 construct: HT-29 cells grown in complete growth media
Description: The cellular activity of the compounds of the present invention against Aurora B may be determined by the following procedure. HT-29 cells grown in complete growth media (McCoy's 5A, 10% FCS, 1% L-glutamine) were plated into wells of a 96 well tissue culture plate (Falcon 3072) at a cell density of 4×10^4 cells/0.09 ml media/well. Cells were subsequently incubated overnight in a 5% CO2 humidified 37° C. incubator. The following day 10 μl of a 10× stock of test compound serially diluted in media was added to the cells and incubated for 1 h at 37° C. at which time Calyculin A (Cell Signaling #9902) was added at a concentration of 100 nM and cells incubated for an additional 30 minutes in a 5% CO2 humidified 37° C. incubator. Media was then aspirated and cells lysed using a Triton based lysis buffer. Lysates were transferred to a pre-coated anti-Histone H3 antibody coated plate supplied by Cell Signaling in their PathScan phospho-Histone H3 (Ser10) ELISA kit (#7155). After an overnight incubation with lysate the ELISA was continued following the manufacturer's instructions. Signal was measured on a Wallac Victor plate reader at 450 nm. DMSO control treated cells served as 100% signal and an Aurora B kinase inhibitor served as 100% inhibition. The percent inhibition of phospho-Histone H3 (Ser10) was expressed as % control. IC50 values were calculated from the percent control data using a standard four-parameter model.
The IC50 values of exemplary compounds of the present invention determined in a Aurora B cell mechanistic assay using the HT-29 cell line according to the procedures described herein in at least duplicate experiments are abbreviated as follows and are shown in Table 4: A, IC50≦0.05 μM; B, 0.05 μM<IC50≦0.2 μM; C, 0.2 μM<IC50≦1 μM; D, IC50>1 μM; ND, not determined. If only data from single experiments are available, the abbreviations are italicized. The Example # of Table 4 corresponds to the compound example number as illustrated in the Examples section.

RON = molecular target: T2, RON (Homo sapiens, UniProt Q04912); assay: sfRON cell mechanistic assay (HeLa), phosphorylated RON ELISA; assay type: cell-based; settings: HeLa cells transfected with sfRON; inhibition of phosphorylated RON; four hours incubation; at least duplicate experiments; read-out: sfRON mech IC50
T2 sequence (Q04912 913-1400): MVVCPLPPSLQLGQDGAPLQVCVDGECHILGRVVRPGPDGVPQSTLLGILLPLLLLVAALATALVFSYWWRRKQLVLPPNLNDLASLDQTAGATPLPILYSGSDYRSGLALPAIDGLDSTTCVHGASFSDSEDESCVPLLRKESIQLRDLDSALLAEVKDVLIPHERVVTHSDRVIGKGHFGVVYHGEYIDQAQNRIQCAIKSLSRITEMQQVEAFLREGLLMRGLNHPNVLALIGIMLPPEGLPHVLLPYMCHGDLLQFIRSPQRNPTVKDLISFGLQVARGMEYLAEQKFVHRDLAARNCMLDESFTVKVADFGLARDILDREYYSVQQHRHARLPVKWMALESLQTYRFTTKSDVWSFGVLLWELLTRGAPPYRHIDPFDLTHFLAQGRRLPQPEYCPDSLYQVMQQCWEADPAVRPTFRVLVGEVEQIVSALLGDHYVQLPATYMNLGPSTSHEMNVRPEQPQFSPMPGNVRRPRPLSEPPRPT
Procedure, shortened: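 HeLa cells transiently transfected with sfRON plasmid, then exposed 4 h at 37 °C to a 6-point compound series (typically 10 μM to 3 nM, 0.5% DMSO). Phospho-RON (pY1238/1239) in lysates measured by sandwich ELISA with luminescence. IC50 from 4-parameter fit of percent-of-DMSO-control data, at least duplicate runs.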

T1 sequence (Q96GD4 whole entry): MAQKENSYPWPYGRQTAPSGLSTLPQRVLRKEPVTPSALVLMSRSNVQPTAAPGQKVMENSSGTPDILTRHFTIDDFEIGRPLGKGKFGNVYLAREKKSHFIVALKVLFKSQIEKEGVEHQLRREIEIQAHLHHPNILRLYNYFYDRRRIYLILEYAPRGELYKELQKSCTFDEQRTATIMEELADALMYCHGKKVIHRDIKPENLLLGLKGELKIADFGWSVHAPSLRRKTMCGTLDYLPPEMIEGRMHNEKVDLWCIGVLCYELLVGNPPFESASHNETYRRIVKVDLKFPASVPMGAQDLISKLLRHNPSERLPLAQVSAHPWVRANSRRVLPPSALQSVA

Row | SMILES | IC50 (Aurora B) [nM] | IC50 (RON) [nM]
1 | COc1ccc(F)c(Cl)c1[C@@H](C)c1c[nH]c2ncc(-c3c[nH]nc3C)cc12 [Example 1, 3-[(1S)-1-(2-Chloro-3-fluoro-6-methoxyphenyl)ethyl]-5-(3-methyl-1H-pyrazol-4-yl)-1H-pyrrolo[2,3-b]pyridine] | 200 to 1000 | 200 to 1000
2 | COc1ccc(F)c(Cl)c1[C@@H](C)c1c[nH]c2ncc(-c3cn(C)nc3C)cc12 [Example 2, 3-[(1S)-1-(2-Chloro-3-fluoro-6-methoxyphenyl)ethyl]-5-(1,3-dimethyl-1H-pyrazol-4-yl)-1H-pyrrolo[2,3-b]pyridine] | 50 to 200 | 200 to 1000
3 | COc1ccc(F)c(Cl)c1[C@@H](C)c1c[nH]c2ncc(-c3cnn(C)c3C)cc12 [Example 3, 3-[(1S)-1-(2-Chloro-3-fluoro-6-methoxyphenyl)ethyl]-5-(1,5-dimethyl-1H-pyrazol-4-yl)-1H-pyrrolo[2,3-b]pyridine] | > 1000 | 200 to 1000
4 | COc1ccc(F)c(Cl)c1[C@@H](C)c1c[nH]c2ncc(-c3c(C)nn(C)c3C)cc12 [Example 4, 3-[(1S)-1-(2-Chloro-3-fluoro-6-methoxyphenyl)ethyl]-5-(1,3,5-trimethyl-1H-pyrazol-4-yl)-1H-pyrrolo[2,3-b]pyridine] | > 1000 | > 1000
5 | COc1ccc(F)c(Cl)c1[C@@H](C)c1c[nH]c2ncc(-c3c(C)nn(CC(C)(C)O)c3C)cc12 [Example 5, 1-(4-{3-[(1S)-1-(2-Chloro-3-fluoro-6-methoxyphenyl)ethyl]-1H-pyrrolo[2,3-b]pyridin-5-yl}-3,5-dimethyl-1H-pyrazol-1-yl)-2-methylpropan-2-ol] | > 1000 | > 1000
6 | COc1ccc(F)c(Cl)c1[C@@H](C)c1c[nH]c2ncc(-c3c(C)nn([C@H]4CC[C@H](O)CC4)c3C)cc12 [Example 6, trans-4-(4-{3-[(1S)-1-(2-Chloro-3-fluoro-6-methoxyphenyl)ethyl]-1H-pyrrolo[2,3-b]pyridin-5-yl}-3,5-dimethyl-1H-pyrazol-1-yl)cyclohexanol] | > 1000 | 200 to 1000
7 | COc1ccc(F)c(Cl)c1[C@@H](C)c1c[nH]c2ncc(-c3cn(CC(C)(C)O)nc3C)cc12 [Example 7, 1-(4-{3-[(1S)-1-(2-Chloro-3-fluoro-6-methoxyphenyl)ethyl]-1H-pyrrolo[2,3-b]pyridin-5-yl}-3-methyl-1H-pyrazol-1-yl)-2-methylpropan-2-ol] | 200 to 1000 | 200 to 1000
8 | COc1ccc(F)c(Cl)c1[C@@H](C)c1c[nH]c2ncc(-c3cnn(CC(C)(C)O)c3C)cc12 [Example 8, 1-(4-{3-[(1S)-1-(2-Chloro-3-fluoro-6-methoxyphenyl)ethyl]-1H-pyrrolo[2,3-b]pyridin-5-yl}-5-methyl-1H-pyrazol-1-yl)-2-methylpropan-2-ol] | 200 to 1000 | 200 to 1000
9 | COc1ccc(F)c(Cl)c1[C@@H](C)c1c[nH]c2ncc(-c3cnn(C[C@H](O)CO)c3C)cc12 [Example 10, (2S)-3-(4-{3-[(1S)-1-(2-Chloro-3-fluoro-6-methoxyphenyl)ethyl]-1H-pyrrolo[2,3-b]pyridin-5-yl}-5-methyl-1H-pyrazol-1-yl)propane-1,2-diol] | 200 to 1000 | ≤ 200
10 | CCc1c(-c2cnc3[nH]cc([C@H](C)c4c(OC)ccc(F)c4Cl)c3c2)cnn1CC(C)(C)O [Example 11, 1-(4-{3-[(1S)-1-(2-Chloro-3-fluoro-6-methoxyphenyl)ethyl]-1H-pyrrolo[2,3-b]pyridin-5-yl}-5-ethyl-1H-pyrazol-1-yl)-2-methylpropan-2-ol] | > 1000 | 200 to 1000
11 | CCc1nn(CC(C)(C)O)cc1-c1cnc2[nH]cc([C@H](C)c3c(OC)ccc(F)c3Cl)c2c1 [Example 12, 1-(4-{3-[(1S)-1-(2-Chloro-3-fluoro-6-methoxyphenyl)ethyl]-1H-pyrrolo[2,3-b]pyridin-5-yl}-3-ethyl-1H-pyrazol-1-yl)-2-methylpropan-2-ol] | > 1000 | 200 to 1000
12 | COc1ccc(F)c(Cl)c1[C@@H](C)c1c[nH]c2ncc(-c3cnn([C@H]4CC[C@H](C(=O)N(C)C)CC4)c3C)cc12 [Example 14, Trans-4-(4-{3-[(1S)-1-(2-chloro-3-fluoro-6-methoxyphenyl)ethyl]-1H-pyrrolo[2,3-b]pyridin-5-yl}-5-methyl-1H-pyrazol-1-yl)-N,N-dimethylcyclohexanecarboxamide] | > 1000 | 200 to 1000
13 | CNC(=O)[C@H]1CC[C@H](n2ncc(-c3cnc4[nH]cc([C@H](C)c5c(OC)ccc(F)c5Cl)c4c3)c2C)CC1 [Example 17, trans-4-(4-{3-[(1S)-1-(2-Chloro-3-fluoro-6-methoxyphenyl)ethyl]-1H-pyrrolo[2,3-b]pyridin-5-yl}-5-methyl-1H-pyrazol-1-yl)-N-methyl cyclohexanecarboxamide] | 200 to 1000 | ≤ 200
14 | COc1ccc(F)c(Cl)c1[C@@H](C)c1c[nH]c2ncc(-c3cnn([C@H]4CC[C@H](C(N)=O)CC4)c3C)cc12 [Example 18, trans-4-(4-{3-[(1S)-1-(2-chloro-3-fluoro-6-methoxyphenyl)ethyl]-1H-pyrrolo[2,3-b]pyridin-5-yl}-5-methyl-1H-pyrazol-1-yl)cyclohexanecarboxamide] | 200 to 1000 | 200 to 1000
15 | COc1ccc(F)c(Cl)c1[C@@H](C)c1c[nH]c2ncc(-c3cn([C@H]4CC[C@H](C(N)=O)CC4)nc3C)cc12 [Example 19, trans-4-(4-{3-[(1S)-1-(2-Chloro-3-fluoro-6-methoxyphenyl)ethyl]-1H-pyrrolo[2,3-b]pyridin-5-yl}-3-methyl-1H-pyrazol-1-yl)cyclohexanecarboxamide] | 50 to 200 | ≤ 200
16 | CNC(=O)[C@H]1CC[C@H](n2cc(-c3cnc4[nH]cc([C@H](C)c5c(OC)ccc(F)c5Cl)c4c3)c(C)n2)CC1 [Example 22, trans-4-(4-{3-[(1S)-1-(2-Chloro-3-fluoro-6-methoxyphenyl)ethyl]-1H-pyrrolo[2,3-b]pyridin-5-yl}-3-methyl-1H-pyrazol-1-yl)-N-methylcyclohexanecarboxamide] | 50 to 200 | ≤ 200
17 | COc1ccc(F)c(Cl)c1[C@@H](C)c1c[nH]c2ncc(-c3cnn([C@H]4CC[C@H](O)CC4)c3C)cc12 [Example 27, trans-4-(4-{3-[(1S)-1-(2-Chloro-3-fluoro-6-methoxyphenyl)ethyl]-1H-pyrrolo[2,3-b]pyridin-5-yl}-5-methyl-1H-pyrazol-1-yl)cyclohexanol] | > 1000 | 200 to 1000
18 | COc1ccc(F)c(Cl)c1[C@@H](C)c1c[nH]c2ncc(-c3cnn([C@@H]4C[C@@H](O)[C@@H](O)C4)c3C)cc12 [Example 31, (1R,2S,4S)-4-(4-{3-[(1S)-1-(2-Chloro-3-fluoro-6-methoxyphenyl)ethyl]-1H-pyrrolo[2,3-b]pyridin-5-yl}-5-methyl-1H-pyrazol-1-yl)cyclopentane-1,2-diol] | > 1000 | 200 to 1000
19 | COc1ccc(F)c(Cl)c1[C@@H](C)c1c[nH]c2ncc(-c3cn([C@@H]4C[C@@H](O)[C@@H](O)C4)nc3C)cc12 [Example 32, (1R,2S,4S)-4-(4-{3-[(1S)-1-(2-Chloro-3-fluoro-6-methoxyphenyl)ethyl]-1H-pyrrolo[2,3-b]pyridin-5-yl}-3-methyl-1H-pyrazol-1-yl)cyclopentane-1,2-diol] | 50 to 200 | ≤ 200
20 | COc1ccc(F)c(Cl)c1[C@@H](C)c1c[nH]c2ncc(-c3c(C)nn([C@@H]4C[C@@H](O)[C@@H](O)C4)c3C)cc12 [Example 33, (1R,2S,4S)-4-(4-{3-[(1S)-1-(2-Chloro-3-fluoro-6-methoxyphenyl)ethyl]-1H-pyrrolo[2,3-b]pyridin-5-yl}-3,5-dimethyl-1H-pyrazol-1-yl)cyclopentane-1,2-diol] | > 1000 | 200 to 1000
